The source of these data is patent US20230248834A1, “DEGRADATION OF (EGFR) BY CONJUGATION OF EGFR INHIBITORS WITH E3 LIGASE LIGAND AND METHODS OF USE” (BEIGENE, LTD., priority 2020, published 2023).

Read-outs that look alike come from different tables or passages of the source.

A word on the Dmax: it is the greatest extent of degradation seen. The DC50 is the concentration at which degradation of the target reaches its halfway point. Lower therefore signals a more potent degrader.

What all share (type): cell-based
In one assay the target is T1, EGFR L858R/C797S (Homo sapiens, UniProt P00533, C797S/L858R).
T1 construct: expressed in transfected cells; host or cells: BaF3 LC
Put plainly: EGFR degradation HTRF assay in BaF3 LC cells. Conditions: for DC50: 16 h treatment, HTRF. In a few lines:
(§1)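 BaF3 cells expressing EGFR L858R/C797S or L858R/T790M/C797S treated 16 h at 37 °C with compounds (top 10 uM, 5-fold, 8 doses; 0.2% DMSO). Remaining EGFR quantified by HTRF in lysates after overnight antibody incubation. Degradation percentage versus DMSO controls; DC50 from four-parameter fit, Dmax as maximal degradation.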
(In general: TR-FRET usually uses a lanthanide donor and a delayed reading to cut background.)

In a further assay the target is T2, EGFR L858R/T790M/C797S (Homo sapiens, UniProt P00533, C797S/L858R/T790M).
T2 construct: expressed in transfected cells; host or cells: BaF3-LTC
Kind of assay: EGFR degradation HTRF assay in BaF3-LTC cells. The conditions noted are these: for Dmax: read-out: BaF3-LTC Dmax (%). In a few lines:
as §1

Another assay concerns EGFR Del19/T790M/C797S. Kind of assay: EGFR degradation HTRF assay in H1975-clone #28 (H1975 #28 DTC). Conditions: H1975-clone #28 (Del19/T790M/C797S), maximum percentage of inhibition (degradation). The procedure:
(§2) Cell Line Generation H1975-clone #28(Del19/T790M/C797S) and H1975-clone #23(Del19/C797S). EGFR-Del19/T790M/C797S and EGFR-Del19/C797S were stably expressed in H1975 cell lines by lentivirus-mediated over-expression, respectively. The EGFR over-expressed cells then underwent gene knockout, in which the EGFR targeting sgRNA was designed to only target the endogenous EGFR copies and preserve the exogenous EGFR copies. Followed by the gene knockout, the edited H1975 cells were seeded in 96 well plates at the concentration of 1 cell/well, cultured for about 2 weeks to allow single clones formation. The formed clones were screened by DNA sequencing and whole exon sequencing analysis for the desired edition. H1975-clone #28 and H1975-clone #23 were finally confirmed as homozygous Del19/T790M/C797S EGFR and Del19/C797S EGFR clones, respectively.
(§3) After 16 h treatment, add HTRF lysis buffer to each well; seal the plate and incubate 1 hour at room temperature on a plate shaker; Once the cells are lysed, 16 μL of cell lysate are transferred to a PE 384-well HTRF detection plate; 4 μL of pre-mixed HTRF antibodies are added to each well; Cover the plate with a plate sealer, spin 1000 rpm for 1 min, Incubate overnight at room temperature; Read on BMG PheraStar with HTRF protocol (337 nm-665 nm-620 nm).
(§4) The inhibition (degradation) percentage of the compound was calculated by the following equation: Inhibition percentage of Compound=100−100×(Signal−low control)/(High control−low control), wherein signal=each test compound group
(§5) High control=Cell group with added DMSO and without compound, indicating microplate readings without EGFR degradation;
(§6) Dmax is the maximum percentage of inhibition (degradation).
(§7) The IC50 (DC50) value of a compound can be obtained by fitting the following equation
(§8) Y=Bottom+(TOP−Bottom)/(1+((IC50/X)^hillslope))
Wherein, X and Y are known values, and IC50, Hillslope, Top and Bottom are the parameters obtained by fitting with software. […]

The subject of a further assay is EGFR Del19/C797S. Kind of assay: EGFR degradation HTRF assay in H1975-clone #23 (H1975 #23 DC). The conditions noted are these: H1975-clone #23 (Del19/C797S); for DC50: 16 h treatment, HTRF; for H1975 #23 DC Dmax (%): maximum percentage of inhibition (degradation). The procedure:
as §2, §3, §4, §5, §6, §7, §8
Wherein, X and Y are known values, and IC50, Hillslope, Top and Bottom are the parameters obtained by fitting with software. Y is the inhibition percentage (calculated from the equation), X is the concentration of the compound; IC50 is the concentration of the compound when the 50% inhibition is reached. The smaller the IC50 value is, the stronger the inhibitory ability of the compound is. Vice versa, the higher the IC50 value is, the weaker the inhibitory ability of the compound is; Hillslope represents the slope of the fitted curve, generally around 1*; Bottom represents the minimum value of the curve obtained by data fitting, which is generally 0%±20%; Top represents the maximum value of the curve obtained by data fitting, which is generally 100%±20%. The experimental data were fitted by calculating and analyzing with Dotmatics data analysis software.

Setting [1] is: BaF3 LC (L858R/C797S), maximum percentage of inhibition (degradation), read-out: BaF3 LC Dmax (%).
Where [2] appears, read: BaF3-LTC (L858R/T790M/C797S), maximum percentage of inhibition (degradation).

T1 sequence (P00533 25-1210 C797S/L858R): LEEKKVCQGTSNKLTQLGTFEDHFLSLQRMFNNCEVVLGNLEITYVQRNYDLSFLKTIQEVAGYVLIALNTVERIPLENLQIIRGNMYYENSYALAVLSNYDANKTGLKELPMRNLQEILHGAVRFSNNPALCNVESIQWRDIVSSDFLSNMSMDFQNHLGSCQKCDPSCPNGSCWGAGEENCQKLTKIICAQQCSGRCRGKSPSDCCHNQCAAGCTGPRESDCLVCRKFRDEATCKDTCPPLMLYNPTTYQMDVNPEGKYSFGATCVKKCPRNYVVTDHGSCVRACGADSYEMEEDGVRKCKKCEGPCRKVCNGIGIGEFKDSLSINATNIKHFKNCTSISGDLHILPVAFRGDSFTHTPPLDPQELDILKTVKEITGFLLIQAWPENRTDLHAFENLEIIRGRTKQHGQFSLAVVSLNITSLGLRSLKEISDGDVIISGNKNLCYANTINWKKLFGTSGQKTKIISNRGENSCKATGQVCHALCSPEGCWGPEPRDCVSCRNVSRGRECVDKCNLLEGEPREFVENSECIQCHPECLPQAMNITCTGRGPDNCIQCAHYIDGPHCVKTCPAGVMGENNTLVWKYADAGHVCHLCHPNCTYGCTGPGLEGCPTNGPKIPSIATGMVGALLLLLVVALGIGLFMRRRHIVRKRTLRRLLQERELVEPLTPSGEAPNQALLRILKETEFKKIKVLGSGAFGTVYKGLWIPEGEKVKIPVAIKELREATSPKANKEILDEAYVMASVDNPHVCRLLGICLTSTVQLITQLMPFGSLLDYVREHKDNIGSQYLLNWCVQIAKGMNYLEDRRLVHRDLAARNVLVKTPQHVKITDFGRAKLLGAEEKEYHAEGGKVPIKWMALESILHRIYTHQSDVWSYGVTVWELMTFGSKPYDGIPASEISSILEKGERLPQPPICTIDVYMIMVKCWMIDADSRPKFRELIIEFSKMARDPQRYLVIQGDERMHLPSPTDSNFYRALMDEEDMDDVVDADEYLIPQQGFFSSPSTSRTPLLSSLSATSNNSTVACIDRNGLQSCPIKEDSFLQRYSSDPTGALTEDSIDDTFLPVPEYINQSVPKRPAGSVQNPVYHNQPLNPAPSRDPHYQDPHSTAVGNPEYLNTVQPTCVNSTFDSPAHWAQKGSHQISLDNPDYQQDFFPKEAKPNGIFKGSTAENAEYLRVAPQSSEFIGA
T2 sequence (P00533 25-1210 T790M/C797S/L858R): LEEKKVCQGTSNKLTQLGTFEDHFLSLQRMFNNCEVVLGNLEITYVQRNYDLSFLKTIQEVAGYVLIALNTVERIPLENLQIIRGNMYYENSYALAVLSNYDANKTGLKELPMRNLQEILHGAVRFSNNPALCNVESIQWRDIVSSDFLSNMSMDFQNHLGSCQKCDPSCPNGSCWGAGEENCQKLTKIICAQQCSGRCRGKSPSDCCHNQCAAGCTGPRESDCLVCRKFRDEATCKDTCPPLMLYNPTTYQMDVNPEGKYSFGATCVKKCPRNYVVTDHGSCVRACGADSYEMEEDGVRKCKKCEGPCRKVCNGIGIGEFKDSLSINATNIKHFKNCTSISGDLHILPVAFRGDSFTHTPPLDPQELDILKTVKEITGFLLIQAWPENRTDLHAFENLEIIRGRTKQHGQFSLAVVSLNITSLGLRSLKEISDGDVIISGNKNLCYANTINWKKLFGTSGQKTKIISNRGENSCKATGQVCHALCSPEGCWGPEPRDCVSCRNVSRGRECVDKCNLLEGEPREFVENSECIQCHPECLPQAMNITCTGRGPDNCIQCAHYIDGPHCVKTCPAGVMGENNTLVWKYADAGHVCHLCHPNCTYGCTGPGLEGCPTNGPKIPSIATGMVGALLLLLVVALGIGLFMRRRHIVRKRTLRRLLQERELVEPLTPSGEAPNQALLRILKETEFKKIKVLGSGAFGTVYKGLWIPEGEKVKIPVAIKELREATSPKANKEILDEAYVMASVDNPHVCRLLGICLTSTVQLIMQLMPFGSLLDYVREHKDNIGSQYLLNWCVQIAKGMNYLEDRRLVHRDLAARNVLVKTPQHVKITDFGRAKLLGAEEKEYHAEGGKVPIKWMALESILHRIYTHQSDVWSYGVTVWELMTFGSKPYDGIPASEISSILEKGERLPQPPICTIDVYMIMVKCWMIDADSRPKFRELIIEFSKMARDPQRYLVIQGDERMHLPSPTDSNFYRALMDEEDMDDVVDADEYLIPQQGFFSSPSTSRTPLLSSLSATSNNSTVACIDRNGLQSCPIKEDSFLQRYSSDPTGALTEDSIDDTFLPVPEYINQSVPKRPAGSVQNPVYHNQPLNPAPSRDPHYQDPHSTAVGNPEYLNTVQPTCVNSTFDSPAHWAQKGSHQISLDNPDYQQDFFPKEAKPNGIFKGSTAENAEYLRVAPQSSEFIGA

Regarding `CCc1ncc2c(P(C)(C)=O)c(Nc3nc(Nc4cc(CC)c(N5CCC(N6CCN(CCc7ccc8c(c7)oc(=O)n8C7CCC(=O)NC7=O)CC6)CC5)cc4OC)ncc3Br)ccc2n1` (stereo not shown) [Example 499, 3-(6-(2-(4-(1-(4-((5-bromo-4-((5-(dimethylphosphoryl)-2-ethylquinazolin-6-yl)amino)pyrimidin-2-yl)amino)-2-ethyl-5-methoxyphenyl)piperidin-4-yl)piperazin-1-yl)ethyl)-2-oxobenzo[d]oxazol-3(2H)-yl)piperidine-2,6-dione], the Dmax on EGFR L858R/C797S (BaF3, read-out: BaF3 LC Dmax (%)) amounted to 91%; at EGFR L858R/T790M/C797S, 87.8%. Moreover, the “H1975 # 28 DTC Dmax (%)” value with EGFR Del19/T790M/C797S is on record as 77.41%.

Consider `COc1cc(N2CCC3(CCN(CCCCCOc4cccc5c4CN(C4CCC(=O)NC4=O)C5=O)CC3)CC2)c(C)cc1Nc1ncc(Br)c(Nc2ccc3nccnc3c2P(C)(C)=O)n1` (stereo not shown) [Example 542, 3-(4-((5-(9-(4-((5-bromo-4-((5-(dimethylphosphoryl)quinoxalin-6-yl)amino)pyrimidin-2-yl)amino)-5-methoxy-2-methylphenyl)-3,9-diazaspiro[5.5]undecan-3-yl)pentyl)oxy)-1-oxoisoindolin-2-yl)piperidine-2,6-dione], for which the DC50 on EGFR L858R/C797S (BaF3 LC (L858R/C797S)) is 16.2 nM; in the assay with EGFR Del19/C797S, greater than 10000 nM. Moreover, the figures for the Dmax at EGFR L858R/C797S (setting [1]) and on EGFR L858R/T790M/C797S (setting [2]) were 90% and 95.6%, respectively. For the same compound, the “H1975 #23 DC Dmax (%)” value with EGFR Del19/C797S came to 31.04%.

In the case of `CCOc1cc(N2CCC(N3CCN(CCc4cccc5c4n(CC)c(=O)n5C4CCC(=O)NC4=O)CC3)CC2)c(CC)cc1Nc1ncc(Br)c(Nc2cc(F)c3nc(CC)ccc3c2P(C)(C)=O)n1` (stereo not shown) [Example 643, 3-(4-(2-(4-(1-(4-((5-bromo-4-((5-(dimethylphosphoryl)-2-ethyl-8-fluoroquinolin-6-yl)amino)pyrimidin-2-yl)amino)-5-ethoxy-2-ethylphenyl)piperidin-4-yl)piperazin-1-yl)ethyl)-3-ethyl-2-oxo-2,3-dihydro-1H-benzo[d]imidazol-1-yl)piperidine-2,6-dione], the maximal degradation (Dmax) on EGFR L858R/C797S (setting [1]) was found to be 94.1%; at EGFR L858R/T790M/C797S (setting [2]), 91.2%.

Turning to `CCc1cc(Nc2ncc(Br)c(Nc3ccc4nc(C)ccc4c3P(C)(C)=O)n2)c(OC2CC2)cc1N1CCC(N2CCN(CCc3cc(F)c([C@H]4CCC(=O)NC4=O)c(F)c3)CC2)CC1` [Example 459, (R)-3-(4-(2-(4-(1-(4-((5-bromo-4-((5-(dimethylphosphoryl)-2-methylquinolin-6-yl)amino)pyrimidin-2-yl)amino)-5-cyclopropoxy-2-ethylphenyl)piperidin-4-yl)piperazin-1-yl)ethyl)-2,6-difluorophenyl)piperidine-2,6-dione], the DC50 at EGFR L858R/C797S (BaF3 LC (L858R/C797S)) came to 20.7 nM; in the assay with EGFR Del19/C797S, 6.01 nM; on EGFR L858R/T790M/C797S (BaF3-LTC (L858R/T790M/C797S), 16 h treatment, HTRF), 7.54 nM. Besides, the figures for the Dmax on EGFR L858R/C797S (setting [1]) and on EGFR L858R/T790M/C797S (setting [2]) were 76.6% and 86.9%, respectively. Moreover, the “H1975 #23 DC Dmax (%)” value with EGFR Del19/C797S amounted to 91.45%.

With `CCOc1cc(N2CCC(N3CCN(CCc4cccc5c4oc(=O)n5C4CCC(=O)NC4=O)CC3)CC2)c(CC)cc1Nc1ncc(Br)c(Nc2ccc3nc(CC)ncc3c2P(C)(C)=O)n1` (stereo not shown) [Example 563, 3-(7-(2-(4-(1-(4-((5-bromo-4-((5-(dimethylphosphoryl)-2-ethylquinazolin-6-yl)amino)pyrimidin-2-yl)amino)-5-ethoxy-2-ethylphenyl)piperidin-4-yl)piperazin-1-yl)ethyl)-2-oxobenzo[d]oxazol-3(2H)-yl)piperidine-2,6-dione], the Dmax on EGFR L858R/T790M/C797S came to 92.6%. For the same compound, in the assay with EGFR Del19/T790M/C797S, the “H1975 # 28 DTC Dmax (%)” value turned out to be 81.88%.

Regarding `CCOc1cc(N2CCC(N3CCN(CC4CN(c5cccc6c5oc(=O)n6C5CCC(=O)NC5=O)C4)CC3)CC2)c(CC)cc1Nc1ncc(Br)c(Nc2ccc3nc(CC)ncc3c2P(C)(C)=O)n1` (stereo not shown) [Example 566, 3-(7-(3-((4-(1-(4-((5-bromo-4-((5-(dimethylphosphoryl)-2-ethylquinazolin-6-yl)amino)pyrimidin-2-yl)amino)-5-ethoxy-2-ethylphenyl)piperidin-4-yl)piperazin-1-yl)methyl)azetidin-1-yl)-2-oxobenzol[d]oxazol-3(2H)-yl)piperidine-2,6-dione], the Dmax on EGFR L858R/T790M/C797S stood at 93.9%. Further, the “H1975 # 28 DTC Dmax (%)” value in the assay with EGFR Del19/T790M/C797S is given as 84.02%.

In the case of `CCOc1cc(N2CCC(N3CCN(CC4CN(c5cc(F)c([C@H]6CCC(=O)NC6=O)c(F)c5)C4)CC3)CC2)c(CC)cc1Nc1ncc(Br)c(Nc2ccc3c(=O)n(CC)ncc3c2P(C)(C)=O)n1` [Example 551, (R)-3-(4-(3-((4-(1-(4-((5-bromo-4-((5-(dimethylphosphoryl)-2-ethyl-1-oxo-1,2-dihydrophthalazin-6-yl)amino)pyrimidin-2-yl)amino)-5-ethoxy-2-ethylphenyl)piperidin-4-yl)piperazin-1-yl)methyl)azetidin-1-yl)-2,6-difluorophenyl)piperidine-2,6-dione], the Dmax at EGFR L858R/C797S (setting [1]) turned out to be 86.8%; at EGFR L858R/T790M/C797S (setting [2]) it was 89.7%.

`CCc1ccc2c(P(C)(C)=O)c(Nc3nc(Nc4cc(CC)c(N5CCC(N6CCN(C(=O)[C@@H]7CCN(c8cc(F)c([C@H]9CCC(=O)NC9=O)c(F)c8)C7)CC6)CC5)cc4OC)ncc3Br)ccc2n1` [Example 489, (R)-3-(4-((R)-3-(4-(1-(4-((5-bromo-4-((5-(dimethylphosphoryl)-2-ethylquinolin-6-yl)amino)pyrimidin-2-yl)amino)-2-ethyl-5-methoxyphenyl)piperidin-4-yl)piperazine-1-carbonyl)pyrrolidin-1-yl)-2,6-difluorophenyl)piperidine-2,6-dione]: the Dmax was 86.6% on EGFR L858R/C797S (setting [1]) and 98.6% at EGFR L858R/T790M/C797S (setting [2]).

For `CCc1ccc2c(P(C)(C)=O)c(Nc3nc(Nc4cc(CC)c(N5CCC(N6CCN(C(=O)C7CN(c8cc(F)c([C@H]9CCC(=O)NC9=O)c(F)c8)C7)CC6)CC5)cc4OC)ncc3Br)ccc2n1` [Example 755, (R)-3-(4-(3-(4-(1-(4-((5-bromo-4-((5-(dimethylphosphoryl)-2-ethylquinolin-6-yl)amino)pyrimidin-2-yl)amino)-2-ethyl-5-methoxyphenyl)piperidin-4-yl)piperazine-1-carbonyl)azetidin-1-yl)-2,6-difluorophenyl)piperidine-2,6-dione], the figures for the Dmax on EGFR L858R/C797S (setting [1]) and at EGFR L858R/T790M/C797S (setting [2]) were 91.7% and 98.6%, respectively.

With `CCOc1cc(N2CCC(N3CCN(CCc4cccc5c4C(C)(C)C(=O)N5C4CCC(=O)NC4=O)CC3)CC2)c(CC)cc1Nc1ncc(Br)c(Nc2ccc3c(=O)n(CC)ncc3c2P(C)(C)=O)n1` (stereo not shown) [Example 501, 3-(4-(2-(4-(1-(4-((5-bromo-4-((5-(dimethylphosphoryl)-2-ethyl-1-oxo-1,2-dihydrophthalazin-6-yl)amino)pyrimidin-2-yl)amino)-5-ethoxy-2-ethylphenyl)piperidin-4-yl)piperazin-1-yl)ethyl)-3,3-dimethyl-2-oxoindolin-1-yl)piperidine-2,6-dione], the Dmax turned out to be 93.5% on EGFR L858R/C797S (setting [1]) and 83.5% on EGFR L858R/T790M/C797S (setting [2]).
